Measured values as given in ChEMBL document CHEMBL5036327, “Systematic Optimization of Potent and Orally Bioavailable Purine Scaffold as a Dual Inhibitor of Toll-Like Receptors 7 and 9” (J Med Chem, 2021).
Values after ≈ are worked out from the molar mass of the structure shown.

What was measured:
[1] = Efflux ratio of apparent permeability across apical to basolateral over basolateral to apical side in human Caco2 cells measured after 10 mins by LC-MS/MS analysis; details: Caco-2
[2] = Stability in mouse plasma measured after 2 hrs by LC-MS/MS analysis
[3] = Apparent permeability across basolateral to apical side in human Caco2 cells at 10 uM measured after 10 mins by LC-MS/MS analysis; details: Caco-2
[4] = biological target: T1, Toll-like receptor 7 (Homo sapiens, UniProt Q9NYK1); assay: Antagonist activity at human TLR7 expressed in HEK-blue-HTLR7 cells assessed as inhibition of CL264-induced NFkappaB activation measured after overnight incubation by SEAP-based spectrophotometry assay
T1 sequence (Q9NYK1 whole entry): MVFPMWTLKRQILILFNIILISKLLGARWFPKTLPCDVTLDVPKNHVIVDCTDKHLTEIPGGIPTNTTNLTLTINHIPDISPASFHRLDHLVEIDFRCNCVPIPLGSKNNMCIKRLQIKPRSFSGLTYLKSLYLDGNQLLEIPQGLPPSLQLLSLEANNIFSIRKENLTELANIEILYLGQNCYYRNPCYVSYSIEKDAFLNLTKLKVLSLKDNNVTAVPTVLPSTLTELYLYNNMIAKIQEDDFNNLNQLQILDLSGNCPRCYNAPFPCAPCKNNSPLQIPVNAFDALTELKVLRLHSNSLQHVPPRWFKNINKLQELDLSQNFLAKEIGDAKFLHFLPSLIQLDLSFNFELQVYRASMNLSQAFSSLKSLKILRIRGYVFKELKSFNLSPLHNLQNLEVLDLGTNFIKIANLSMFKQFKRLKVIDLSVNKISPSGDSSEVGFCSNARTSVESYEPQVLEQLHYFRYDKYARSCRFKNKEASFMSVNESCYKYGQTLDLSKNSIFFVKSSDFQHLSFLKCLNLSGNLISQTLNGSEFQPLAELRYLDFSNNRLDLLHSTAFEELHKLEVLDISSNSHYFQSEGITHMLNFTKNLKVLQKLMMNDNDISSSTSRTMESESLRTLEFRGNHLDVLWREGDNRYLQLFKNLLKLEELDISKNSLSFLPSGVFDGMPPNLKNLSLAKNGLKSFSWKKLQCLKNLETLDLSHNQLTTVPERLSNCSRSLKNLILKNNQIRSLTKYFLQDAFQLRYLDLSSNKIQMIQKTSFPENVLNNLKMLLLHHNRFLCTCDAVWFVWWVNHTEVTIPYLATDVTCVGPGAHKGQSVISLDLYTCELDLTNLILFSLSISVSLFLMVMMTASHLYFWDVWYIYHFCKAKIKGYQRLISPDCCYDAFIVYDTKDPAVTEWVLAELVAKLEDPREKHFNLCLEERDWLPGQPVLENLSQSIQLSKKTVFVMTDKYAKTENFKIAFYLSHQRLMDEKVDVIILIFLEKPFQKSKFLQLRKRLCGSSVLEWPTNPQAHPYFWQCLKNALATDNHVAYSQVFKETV

[5] = Metabolic stability in human liver microsomes assessed as compound remaining incubated for 60 mins by LC-MS/MS analysis
[6] = biological target: T2, Toll-like receptor 9 (Homo sapiens, UniProt Q9NR96); assay: Antagonist activity at human TLR9 expressed in […] cells assessed as inhibition of CpGB-induced NFkappaB activation measured after overnight incubation by SEAP-based spectrophotometry assay; assay type: cell-based, HEK293
T2 sequence (Q9NR96 whole entry): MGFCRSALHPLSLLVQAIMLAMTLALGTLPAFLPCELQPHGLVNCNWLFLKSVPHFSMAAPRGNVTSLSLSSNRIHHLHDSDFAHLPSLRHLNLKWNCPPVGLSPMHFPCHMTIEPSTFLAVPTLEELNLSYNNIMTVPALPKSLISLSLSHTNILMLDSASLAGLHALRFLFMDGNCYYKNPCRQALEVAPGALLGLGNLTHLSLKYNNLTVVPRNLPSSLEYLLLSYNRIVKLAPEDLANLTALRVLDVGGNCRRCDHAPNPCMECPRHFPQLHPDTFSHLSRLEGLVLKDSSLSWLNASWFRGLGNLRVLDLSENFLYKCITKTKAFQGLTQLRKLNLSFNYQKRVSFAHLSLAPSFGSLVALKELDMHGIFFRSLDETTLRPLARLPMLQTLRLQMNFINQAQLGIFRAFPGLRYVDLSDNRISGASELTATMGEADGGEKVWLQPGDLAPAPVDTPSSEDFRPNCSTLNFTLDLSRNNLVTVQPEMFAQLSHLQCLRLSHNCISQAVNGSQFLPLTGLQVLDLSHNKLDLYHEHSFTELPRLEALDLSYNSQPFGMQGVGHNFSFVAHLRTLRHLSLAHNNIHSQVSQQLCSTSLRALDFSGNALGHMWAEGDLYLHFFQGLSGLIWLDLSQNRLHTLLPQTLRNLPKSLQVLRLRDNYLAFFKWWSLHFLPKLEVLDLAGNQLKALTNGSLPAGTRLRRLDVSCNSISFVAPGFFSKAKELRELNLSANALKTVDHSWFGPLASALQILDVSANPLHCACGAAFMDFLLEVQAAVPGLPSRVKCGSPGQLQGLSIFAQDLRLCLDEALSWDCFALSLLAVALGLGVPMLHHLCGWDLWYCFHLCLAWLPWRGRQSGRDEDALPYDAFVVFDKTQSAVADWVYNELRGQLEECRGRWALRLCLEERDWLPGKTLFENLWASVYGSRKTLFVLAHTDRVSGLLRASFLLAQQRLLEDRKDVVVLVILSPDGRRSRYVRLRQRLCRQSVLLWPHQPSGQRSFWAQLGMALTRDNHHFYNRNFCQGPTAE

[7] = Metabolic stability in human liver microsomes assessed as intrinsic clearance incubated for 60 mins by LC-MS/MS analysis
[8] = Apparent permeability across apical to basolateral side in human Caco2 cells at 10 uM measured after 10 mins by LC-MS/MS analysis; details: Caco-2
[9] = biological target: T3, Toll-like receptor 8 (Homo sapiens, UniProt Q9NR97); assay: Antagonist activity at human TLR8 expressed in […] cells assessed as inhibition of CL075-induced NFkappaB activation measured after overnight incubation by SEAP-based spectrophotometry assay; assay type: cell-based, HEK293
T3 sequence (Q9NR97 whole entry): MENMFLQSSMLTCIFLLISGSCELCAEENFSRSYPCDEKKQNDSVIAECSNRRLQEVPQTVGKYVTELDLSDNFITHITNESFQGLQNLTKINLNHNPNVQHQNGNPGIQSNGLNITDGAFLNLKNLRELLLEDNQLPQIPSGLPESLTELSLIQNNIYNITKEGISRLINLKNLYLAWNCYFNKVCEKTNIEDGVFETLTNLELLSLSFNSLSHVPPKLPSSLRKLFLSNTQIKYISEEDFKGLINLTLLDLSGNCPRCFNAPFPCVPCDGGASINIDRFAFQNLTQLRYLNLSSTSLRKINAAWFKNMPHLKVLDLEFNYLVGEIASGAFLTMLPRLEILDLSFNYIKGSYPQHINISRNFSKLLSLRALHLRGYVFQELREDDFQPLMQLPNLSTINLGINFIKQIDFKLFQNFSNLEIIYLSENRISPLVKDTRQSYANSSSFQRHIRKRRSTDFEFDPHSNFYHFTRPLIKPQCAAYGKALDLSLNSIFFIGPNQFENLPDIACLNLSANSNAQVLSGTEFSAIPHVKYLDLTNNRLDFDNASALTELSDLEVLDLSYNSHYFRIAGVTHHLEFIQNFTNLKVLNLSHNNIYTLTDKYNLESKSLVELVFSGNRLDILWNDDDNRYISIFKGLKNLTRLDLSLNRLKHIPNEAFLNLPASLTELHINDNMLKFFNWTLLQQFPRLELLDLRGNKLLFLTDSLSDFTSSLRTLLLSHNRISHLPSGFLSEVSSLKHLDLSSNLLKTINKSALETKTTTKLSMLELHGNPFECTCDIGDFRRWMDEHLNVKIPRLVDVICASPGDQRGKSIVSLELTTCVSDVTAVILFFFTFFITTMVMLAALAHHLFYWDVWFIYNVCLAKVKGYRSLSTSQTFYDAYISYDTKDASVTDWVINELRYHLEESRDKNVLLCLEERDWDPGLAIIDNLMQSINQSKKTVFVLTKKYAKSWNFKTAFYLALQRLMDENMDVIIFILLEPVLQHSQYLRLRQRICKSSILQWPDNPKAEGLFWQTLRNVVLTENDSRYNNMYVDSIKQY

[10] = physchem; details: buffer, pH 7.4
[11] = Metabolic stability in human liver microsomes assessed as half life incubated for 60 mins by LC-MS/MS analysis
[12] = Metabolic stability in mouse liver microsomes assessed as hepatic extraction ratio incubated for 60 mins by LC-MS/MS analysis
[13] = Metabolic stability in mouse liver microsomes assessed as intrinsic clearance incubated for 60 mins by LC-MS/MS analysis
[14] = Stability in human plasma measured after 2 hrs by LC-MS/MS analysis
[15] = metabolic stability in human liver microsomes assessed as hepatic extraction ratio incubated for 60 mins by LC-MS/MS analysis

| IC50 [4] | IC50 [6] | SMILES | other results |
| --- | --- | --- | --- |
| 4.78 µM | 1.19 µM | CCN1CCN(CCCn2cnc3c(N4CCN(CC)CC4)ncnc32)CC1 | efflux ratio at 10 min [1]: 2.6; remaining at 2 h [2]: 99%; Papp B→A at 10 min, 10 µM [3]: 9.28 ×10⁻⁶ cm/s; remaining at 1 h [5]: 75.8%; microsomal CLint at 1 h [7]: 7.81 µL/min/mg; Papp A→B at 10 min, 10 µM [8]: 3.57 ×10⁻⁶ cm/s |
| > 30 µM | > 30 µM | CCN1CCN(CCCn2cnc3c(N4CCN(C(=O)c5ccccc5)CC4)nc(NCc4ccc(F)cc4)nc32)CC1 | – |
| 4.94 µM | 0.19 µM | CCN1CCN(c2nc(N)nc3c2ncn3CCCN2CCCC2)CC1 | – |
| 13.2 µM | 0.28 µM | CCN1CCN(CCCn2cnc3c(N4CCN(C5CCCC5)CC4)nc(N)nc32)CC1 | – |
| 8.4 µM | 3.4 µM | CCN1CCN(CCCn2cnc3c(N4CCN(C(=O)c5ccccc5)CC4)nc(NCc4ccc(N(CC)CC)cc4)nc32)CC1 | – |
| 8.49 µM | 0.5 µM | CCN1CCN(CCCn2cnc3c(N4CCN(CC)CC4)nc(N4CCCC4)nc32)CC1 | – |
| 8.13 µM | 0.15 µM | CCN1CCN(CCCn2cnc3c(N4CCN(C5CCCC5)CC4)nc(NCc4ccc(N(CC)CC)cc4)nc32)CC1 | – |
| – | 0.04 µM | CCN1CCN(c2nc(NCc3ccc(F)cc3)nc3c2ncn3CCCN2CCCC2)CC1 | IC50 [9]: > 30 µM |
| 16.2 µM | 0.26 µM | CCN1CCN(CCCn2cnc3c(N4CCN(CC)CC4)nc(N)nc32)CC1 | – |
| > 30 µM | 0.25 µM | CCN1CCN(CCCn2cnc3c(N4CCN(C5CCCC5)CC4)nc(NCc4ccc(F)cc4)nc32)CC1 | – |
| > 30 µM | > 30 µM | CCN1CCN(CCCn2cnc3c(N4CCN(C(=O)c5ccccc5)CC4)nc(N4CCCC4)nc32)CC1 | – |
| > 30 µM | > 30 µM | CCN1CCN(CCCn2cnc3c(N4CCN(C(=O)C5CCCC5)CC4)nc(NCc4ccc(F)cc4)nc32)CC1 | – |
| > 30 µM | > 30 µM | CCN1CCN(CCCn2cnc3c(N4CCN(C(=O)c5ccccc5)CC4)nc(N)nc32)CC1 | – |
| – | 0.06 µM | CCN1CCN(CCCn2cnc3c(N4CCN(C5CCCC5)CC4)nc(NC(=O)c4ccc(CN(C)C)cc4)nc32)CC1 | IC50 [9]: > 30 µM |
| 11.6 µM | – | COc1ccc(CNc2nc(N3CCN(C4CCCC4)CC3)c3ncn(CCCN4CCCC4)c3n2)cc1 | – |
| 4.88 µM | 0.12 µM | Nc1nc(N2CCN(C3CCCC3)CC2)c2ncn(CCCN3CCCC3)c2n1 | – |
| 7.59 µM | – | CCN1CCN(CCCn2cnc3c(N4CCN(CC)CC4)nc(NCc4ccccc4)nc32)CC1 | – |
| – | – | CCN1CCN(c2nc(NCc3ccc(OC)cc3)nc3c2ncn3CCCN2CCCC2)CC1 | IC50 [9]: > 30 µM |
| 10.1 µM | – | CCN1CCN(CCCn2cnc3c(N4CCN(CC)CC4)nc(NCc4ccc(F)cc4)nc32)CC1 | – |
| 5.22 µM | 0.2 µM | CCN1CCN(CCCn2cnc3c(N4CCN(CC)CC4)nc(NCc4ccc(OC)cc4)nc32)CC1 | – |
| > 30 µM | > 30 µM | CCN1CCN(CCCn2cnc3c(N4CCN(C(=O)C5CCCC5)CC4)nc(N)nc32)CC1 | – |
| 7.74 µM | – | CCN1CCN(CCCn2cnc3c(N4CCN(CC)CC4)nc(NC(=O)c4ccccc4)nc32)CC1 | – |
| 17.8 µM | 0.09 µM | CCN1CCN(c2nc(NCc3ccc(CN(C)C)cc3)nc3c2ncn3CCCN2CCCC2)CC1 | efflux ratio at 10 min [1]: 0.7; remaining at 2 h [2]: 22%; solubility at 18 h [10]: 136 µg/mL (≈ 269 µM); half-life at 1 h [11]: 1.87 h; Papp B→A at 10 min, 10 µM [3]: 61.2 ×10⁻⁶ cm/s; hepatic extraction ratio at 1 h [12]: 0.114; microsomal CLint at 1 h [13]: 4.74 µL/min/mg; remaining at 1 h [5]: 50.7%; microsomal CLint at 1 h [7]: 7.1 µL/min/mg; remaining at 2 h [14]: 58%; hepatic extraction ratio at 1 h [15]: 0.241; Papp A→B at 10 min, 10 µM [8]: 92.2 ×10⁻⁶ cm/s |
| > 30 µM | – | CCN1CCN(CCCn2cnc3c(N4CCN(C5CCCC5)CC4)nc(NCc4ccc(OC)cc4)nc32)CC1 | – |
| > 30 µM | > 30 µM | CCN1CCN(CCCn2cnc3c(N4CCN(C(=O)c5ccccc5)CC4)nc(NCc4ccc(OC)cc4)nc32)CC1 | – |
| > 30 µM | > 30 µM | CCN1CCN(CCCn2cnc3c(N4CCN(C(=O)C5CCCC5)CC4)nc(NCc4ccc(OC)cc4)nc32)CC1 | – |
